Results on one compound are retold here after publication PMC7285002, “Enhanced Oral Bioavailability of the Pharmacologically Active Lignin Magnolol via Zr-Based Metal Organic Framework Impregnation” (Pharmaceutics, 2020).

The subject of data set [1] is female Sprague Dawley rats. Kind of data set: Acute oral toxicity (OECD 425, limit test). Type of data set: in vivo. Here is the method: Animal toxicity test was done in accordance with the Organization for Economic Cooperation and Development guidelines for testing chemical compounds using the up and down method (OECD procedure 425). Prior to dosing, 2 mL of blood was extracted through tail clipping and was submitted for alanine aminotransferase (ALT) and creatinine level determinations for signs of liver and kidney damages, respectively. […] In cases where the first animal survived, an additional four rats were subjected to the same dose. […] An additional rat was administered with the solvent only to compare the variation in the animal species. Test animals that survived in the 14-day observation were euthanized in a carbon dioxide chamber followed by the harvesting of blood, liver and kidney of all test animals. The blood was once again submitted for ALT and creatinine level determination. The organs were submitted for tissue mounting and histopathological evaluation.

A short description of data set [2]: Oral bioavailability / pharmacokinetic study (serum magnolol by HPLC). In kind it is in vivo. The note with it: Sprague-Dawley (SD), rat, 100 mg kg^−1, male SD rats; for AUC(0-t): read-out: AUC0–720 (converted); for half-life: male, 100 mg/kg. How it is done:
(§1) The determination of the bioavailability of magnolol and its tissue distribution to the brain, liver, and kidney was done according to the method of Ding et al. (2018), Higashi (2015), Lin et al. (2011), and Kotani et al. (2005).
For the pharmacokinetic study, male SD rats were randomly divided into 4 groups (n = 3). […] Blood samples (approximately 200 to 250 µL) were collected at predetermined time points (15, 30, 60, 120, 180, 240, 480, and 720 min) and allowed to clot and centrifuged at 4000 rpm at 4 °C for 5 min to obtain the serum. The obtained sera were treated with equal amount of acetonitrile and then centrifuged again to obtain the protein-free sera.
(§2) Samples were reconstituted with acetonitrile prior to HPLC analysis. The samples were injected into the HPLC (n = 3). The quantity of magnolol was computed using a standard calibration curve.

Data set [3] in a line: Tissue distribution of unconjugated magnolol. In kind it is in vivo. Conditions: Sprague-Dawley (SD), rat, 1 h after oral 50 mg kg^−1, male SD rats. Here is the method:
as §1
After one hour of administration, the animals were euthanized in a carbon dioxide chamber and their organs (brain, liver, and kidney) were collected. The organs were weighed and homogenized in 10 mL of acetonitrile, and centrifuged at 10,000 rpm for 10 min. The supernatant was dried under reduced pressure.
as §2

The conditions of data set [4]: low bioavailability of magnolol, stated in the abstract without reference; cited from earlier work.

Each structure is given as a SMILES string. Like-named read-outs stand apart in the source and are kept apart here.

What is called AUC(0-inf) is total exposure, with the tail of the curve extrapolated. The term Cmax denotes the maximum level reached in the sampled fluid or tissue. By Tmax is commonly meant the time at which the peak concentration occurs. Turning to `C=CCc1ccc(O)c(-c2cc(CC=C)ccc2O)c1` [Magnolol, 4-Allyl-2-(5-allyl-2-hydroxy-phenyl)phenol], the “survival after limit dose” value in data set [1] (2000 mg kg^−1 oral, female SD rats, 14 days) is “All test animals survived”. For the same compound, the “mean serum ALT level, before vs after administration” value in data set [1] (2000 mg kg^−1 oral, paired t-test) is listed as “no significant difference”. Also, the “median lethal dose (LD50)” value in data set [1] (oral gavage, female SD rats, 14-day observation, assumed from limit test) is listed as “greater than 2000 mg kg^−1”. Also, the results for the AUC(0-inf) in data set [2] (IP (intraperitoneal route)) and in data set [2] (PO (oral route)) were 66900 ng·h/mL and 15100 ng·h/mL, respectively. The Cmax turned out to be 5100 ± 650 ng/mL in data set [2] (IP (intraperitoneal route)) and 2570 ± 260 ng/mL in data set [2] (PO (oral route)). In addition, the figures for the Tmax in data set [2] (IP (intraperitoneal route)) and in data set [2] (PO (oral route)) were 64.1 min and 55.8 min, respectively. In addition, the AUC(0-t) in data set [2] (IP (intraperitoneal route)) is 43000 ng·h/mL; in data set [2] (PO (oral route)), 13700 ng·h/mL. Besides, the half-life in data set [2] (ip, IP (intraperitoneal route), read-out: Abs T1/2 (absorption half-life)) came out at 17.1 ± 3.63 min; in data set [2] (ip, IP (intraperitoneal route), read-out: T1/2 (elimination half-life)), 461 ± 37.4 min; in data set [2] (po, PO (oral route), read-out: Abs T1/2 (absorption half-life)), 23.3 ± 3.16 min; in data set [2] (po, PO (oral route), read-out: T1/2 (elimination half-life)) it was 100 ± 20.4 min. Besides, the concentration at 1 h in data set [3] (brain, read-out: mean magnolol concentration, Brain) is 374 ± 22 ng/g; in data set [3] (kidney, read-out: mean magnolol concentration, Kidneys) it was 3740 ± 890 ng/g; in data set [3] (liver, read-out: mean magnolol concentration, Liver), 790 ± 180 ng/g. Besides, the bioavailability in data set [4] is 4–5%.
